Source: patent publication US10370391B2, “Hydrogen peroxide-activable, anti-oxidant compounds and methods using same” (Beth Israel Deaconess Medical Center, Inc., priority 2014, dated 2019)

What was measured:
[1] = Stability of BRAP under acidic condition (1H NMR); format: physicochemical; conditions: pH 3.0, 72 hours of incubation
Method: FIG. 2, comprising FIGS. 2A-2C, illustrates H2O2 scavenging effects of BRAP. FIG. 2A: Exemplary change of UV-absorbance of BRAP in the presence of H2O2. FIG. 2B: H2O2 scavenging by various concentrations of BRAP. H2O2 solution (10 μM) was mixed with HBA or BRAP for 1 min, and the chemiluminescent intensity was measured by adding diphenyl oxalate (10 mg) and rubrene (1 mg). *p<0.01, **p<0.001 relative to H2O2 only group (n=4/group). FIG. 2C: ^1H NMR spectrum of BRAP under acidic condition (pH=3.0) after 72 h.
Without wishing to be limited by any theory, BRAP could scavenge H2O2 during its H2O2-mediated boronate oxidation. This possibility was investigated using peroxalate chemiluminescence. Peroxalate chemiluminescence has been used as a versatile tool for the detection of a variety of chemical species including fluorescent molecules and H2O2 because of its excellent specificity and simplicity (Hadd, et al., 1999, J. Chem. Educ. 76:1237; Lee, et al., 2011, Bull. Korean Chem. Soc. 32:2187). […] A majority of H2O2 was scavenged by the same concentration of BRAP within 1 minutes.

[2] = tested on: nitric oxide production in LPS-treated cells; assay: Nitric oxide generation in LPS-treated cells (Griess reaction); format: cell-based; conditions: time and dose-dependent
Method: FIG. 4, comprising FIGS. 4A-4F, is a set of graphs, bar graphs and images illustrating anti-oxidant and anti-inflammatory effects of BRAP in vitro. […] The generation of ROS was monitored by flow cytometry as an indicator of DCF fluorescence. Fluorescence was analyzed in 10,000 cells with excitation at 480 nm and emission at 530 nm. FIG. 4C: Protective effect of BRAP on H2O2— stimulated adult rat cardiomyocytes. V=vehicle, *<0.05 vs. V+H2O2 (n=4). […] (n=4/group).
Nitric oxide is one of major sources of oxidative stress and a well-known pro-inflammatory mediator in the pathogenesis of inflammation (Lundberg, et al., 1997, Nature Medicine 3:30). The effects of BRAP on the generation of nitric oxide in LPS-treated cells were studied using a colorimetric assay based on the Griess reaction.

[3] = tested on: hepatic I/R injury; assay: Mouse model of hepatic I/R injury; format: in vivo; conditions: ip at reperfusion
Method: FIG. 5, comprising FIGS. 5A-5D, is a set of images and bar graphs illustrating beneficial effects of BRAP in hepatic I/R (1 hour ischemia/12 hour reperfusion) injury. FIG. 5A: Hematoxylin and eosin (H/E) staining, DHE staining, and TUNEL staining of mouse liver after injection with HBA or BRAP. FIGS. 5B-5D: Quantitative analysis of serum ALT levels (FIG. 5B), cleaved caspase-3 protein expression (FIG. 5C), and TNF-α protein expression (FIG. 5D) after I/R injury. *p<0.01 relative to Veh I/R. †p<0.05 relative to HBA I/R (n=3˜4/group). Actin protein expression was used as an internal control for protein loading.
Experiments to evaluate whether BRAP reduces ROS generation and inhibits apoptosis were performed in a mouse model of […] I/R injuries. I/R was induced first by 1 hour of ligation of hepatic artery and portal vein followed by reperfusion of hepatic artery. BRAP or HBA was then administrated intraperitoneally (ip) at the time of reperfusion.
Hepatic I/R surgery was performed in 12 week-old male mice. Briefly, mice were anaesthetized, and midline incision was performed for laparotomy. After identifying the portal triad and biliary tree, the main trunk of hepatic artery and portal vein were clamped with vascular clip except for the vasculatures to the right lower lobe to achieve ischemic injury to approximately 70% of the liver. After 1 hour of ischemia, reperfusion was achieved by releasing the vascular clip. No vascular clamp was done for the sham group of mice.
For liver apoptosis assay, terminal deoxynucleotidyl transferase dUTP nick end labeling (TUNEL) staining was performed using a DeadEnd™ Fluorometric TUNEL kit (Promega, Madison, Wis.). Tissue sections were stained for nuclei (4′,6-diamidino-2-phenylindole (DAPI) staining) and apoptotic nuclei (TUNEL staining) and analyzed using a confocal laser scanning microscope. For heart tissues, TUNEL staining was performed using in situ cell death detection Kit, fluorescein (Roche Applied Science, Indianapolis, Ind.). To distinguish cardiomyocyte from non-cardiomyocyte nuclei, triple stain for nuclei (DAPI staining), apoptotic nuclei (TUNEL staining), and cardiomyocytes (α-Actinin staining) was used, and the stained sections were analyzed using confocal microscopy. A minimum of ˜10 high power fields with ˜2000 nuclei/field were counted for each sample.
Heart tissues were collected for molecular analyses were performed in Bae, et al., 2010, Am J Physiol Heart Circ Physiol 299:H1374. For RT-PCR ribosomal 18S primers acted as internal controls and all RT-PCR signals were normalized to the 18S signal of the corresponding RT products. For Western blot analysis, the protein content was measured using BCA assay. Actin protein expression was used as an internal control for protein loading.
The optimal cutting temperature (OCT)-embedded tissues were fixed in 4% paraformaldehyde. Tissue sections were incubated with 5 μM dihydroethidium (DHE, Sigma-Aldrich) at 37° C. for 30 min in a humidified chamber protected from light. Then, 4′,6-diamidino-2-phenylindole (DAPI) was applied. Images were acquired by confocal fluorescence microscope.

[4] = tested on: mouse macrophage (RAW264.7) cells; assay: MTT cytotoxicity assay, RAW264.7; format: cell-based; conditions: concentrations as high as 5 mM, 24 hours of incubation
Method: FIG. 3, comprising FIGS. 3A-3B, is a set of bar graphs illustrating biocompatibility profiles of BRAP assessed by MTT assay in mouse macrophage (RAW264.7) cells (FIG. 3A) and ARVC (FIG. 3B). FIG. 19 is a bar graph showing the results of assessing cytotoxicity of BRAP-encapsulated PLGA microparticles against RAW264.7 cells in vitro. Cell viability was determined by the 3-(4,5-dimethylthiazil-2yl)-2,5-diphenyltetrazolium bromide (MTT) assay 24 hours after addition of BRAP-encapsulated PLGA microparticles to cells. “PB” represents BRAP-encapsulated PLGA microparticles. The percentages indicate the weight content of BRAP in the particles. Values shown represent mean±s.d. (n=4). […] 3-(4,5-Dimethylthiazil-2yl)-2,5-diphenyltetrazolium bromide (MTT) assay was performed to evaluate the cytotoxicity of BRAP. NIH 3T3 cells were cultured at a density of 1×10^5 cells/well in a 24 well plate, and RAW 264.7 cells and HEK cells were also cultured at a density of 2×10^5 cells/well in a 24 well plate. Cells were incubated for 24 hours to reach ˜80% confluency. Cells were treated with various amount of BRAP and incubated for 24 hours. […] After 10 min incubation, the absorbance at 570 nm was measured using a microplate reader (Biotek Instruments, Winooski, Vt.). The cell viability was determined by comparing the absorbance of BRAP treated cells that of control cells.

Question: For CC1(CO)COB(c2ccc(CO)cc2)OC1 [BRAP, (4-(5-(hydroxymethyl)-5-methyl-1,3,2-dioxaborinan-2-yl)phenyl)methanol], which “stability in acidic environment” value [1] is on record?
Answer: Its value is “not influenced”.

Question: What about the “inhibition of nitric oxide production” value [2] of the same molecule?
Answer: Its value is “inhibitory effects”.

Question: What about the “ROS generation (DHE staining) in liver” value [3] of the same molecule?
Answer: Its value is “higher inhibitory effects on ROS generation than HBA”.

Question: What about the “protection from I/R-induced liver damage (serum ALT)” value [3] of the same molecule?
Answer: Its value is “concentration-dependent protection”.

Question: What about the “hepatic damages (histology, H/E)” value ([3]; 1 hour ischemia/12 hour reperfusion, same dose of HBA and BRAP) of the same molecule?
Answer: The value was “significant attenuation”.

Question: What about the TNF-α protein expression ([3]; same dose of HBA and BRAP) of the same molecule?
Answer: Its TNF-α protein expression is “significant inhibition”.

Question: What about the “cleaved caspase-3 protein expression” value ([3]; same dose of HBA and BRAP) of the same molecule?
Answer: Its value is “significant inhibition”.

Question: And the “hepatic apoptosis (TUNEL)” value ([3]; same dose of HBA and BRAP)?
Answer: Its value is “significantly greater anti-apoptotic effects than HBA”.

Question: And the “cytotoxicity (MTT)” value [4]?
Answer: Its value is “no significant cytotoxicity”.
